Test results from patent US20050085457A1, “Therapeutic quinolone compounds with 5-ht-antagonistic properties” (priority 2001, published 2005).

Experiments:
Hartley guinea pigs = experiment: learned helplessness test in guinea pigs; format: in vivo; settings: guinea pig
Excerpt: The utility of the compounds for example to treat depression may be shown via a learned helplessness test in guinea pigs, which is used extensively as correlative to antidepressant activity in humans. The learned helplessness test may be carried out as follows: Seventy male Hartley guinea pigs, each weighing about 350-425 gm are fed ad lib, and are housed under a 12-hour light/dark cycle. The procedure consists of two phases: The induction phase and the avoidance-training phase. In the induction phase, subjects are placed into standard shuttle cages (20 L×16 W×21 centimeters H) which are fitted with a grid floor. Electrical stimulation (1.25 mA, 10 sec duration) is delivered to the floor of the cage every 90-sec during 1 hour daily sessions. Subjects have no opportunity to escape or to avoid shocks. Induction is conducted for 2 consecutive days.
In avoidance training, testing is also conducted in the shuttle cages, except that the subjects are not returned to the same chamber in which induction had occurred. Additionally, all cages are fitted with a partition with an arch in the center of the cage, through which animals can pass between the left and right halves of the cage. The procedure employed is a standard shuttle avoidance procedure in which a compound, conditioned stimulus (a 10-sec presentation of a tone and turning on of a lamp on the side of the cage that the guinea pig was occupying) serves to indicate presentation of electrical current to the floor of the cage. Shock is presented for a 5 sec period, 5 sec after initiation of the conditioned stimulus. Entry into the opposite side of the shuttle cage via the arched partition prior to shock onset results in the end of the trial (avoidance response). If shock is delivered, entry into the opposite side of the cage results in termination of the shock and CS (escape). Reversal of learned helplessness in the induction subjects correlates to antidepressant activity of the test compound.
Avoidance training, 45-min in duration, is conducted on 2 consecutive days, beginning 48 hr after the final induction session. Seventy subjects are assigned to 1 of 6 groups of 11-12 animals. The groups are as follows: • 1) No induction group. The subjects are placed into the shuttle cages but are not given inescapable shock, the animals are subsequently trained in the avoidance procedure and the vehicle is administered; • 2) Induction vehicle control group; • 3) Imipramine 17.8 mg/kg; • 4) 0.3 mg/kg compounds; • 5) 1 mg/kg compounds; and • 6) 5 mg/kg compounds.
Groups 2-6 are given induction and avoidance training sessions. Injections are administered immediately following induction sessions and 1 hour prior to avoidance training sessions. […]

[1] = molecular target: 5-HT1B and 5HT1D receptors; settings: guinea pig cortex membranes; "may result in a measurement of"; assay of Roberts et al.; read-out: Kd of the radioligand (saturation studies); cited from earlier work

Compound	melting point	activity in the learned helplessness assay for antidepressant/antianxiety activity (Hartley guinea pigs)	Kd [1]
CN1CCN(c2cccc3c2OC(C(=O)Nc2ccc(N4CCOCC4)cc2)CC3=O)CC1 (racemic) [Example 78, racemic-8-(4-methyl-piperazin-1-yl)-4-oxo-chroman-2-carboxylic Acid (4-morpholin-4-yl-phenyl)-amide]	215 to 216 °C	–	–
CN1CCN(c2cccc3c2OC(C(=O)Nc2ccc(N4CCOCC4)cc2)CC3=O)CC1 (single isomer, unassigned) [Example 80, 8-(4-Methyl-piperazin-1-yl)-4-oxo-chroman-2-carboxylic Acid (4-morpholin-4-yl-phenyl)-amide (Slower Running Isomer)]	215 °C (dec.)	–	–
CN1CCN(c2cccc3c(=O)cc(C(=O)Nc4ccc(N5CCOCC5)cc4)oc23)CC1 [Example 1, 8-(4-methyl-1-piperazinyl)-N-[4-(4-morpholinyl)phenyl]-4-oxo-4H-chromene-2-carboxamide]	217 to 218 °C (dec.)	–	–
CN1CCN(c2cccc3c(=O)cc(-c4nc5ccc(N6CCOCC6)cc5o4)oc23)CC1 [Example 21, 8-(4-Methyl-piperazin-1-yl)-2-(6-morpholin-4-yl-benzooxazol-2-yl)-chromen-4-one]	158.1 to 158.8 °C	–	–
CN1CCN(c2cccc3c(=O)cc(C(=O)N(C)c4ccc(N5CCOCC5)cc4)oc23)CC1 [Example 25, 8-(4-Methylpiperazin-1-yl)-4-oxo-4H-chromene-2-carboxylic Acid methyl-(4-morpholin-4-yl-phenyl)amide]	245 to 246.8 °C	–	–
CCC(=O)N1CCN(c2ccc(NC(=O)c3cc(=O)c4cc(OC)cc(N5CCN(C)CC5)c4o3)cc2)CC1 [Example 44, 6-Methoxy-8-(4-methyl-piperazin-1-yl)-4-oxo-4H-chromene-2-carboxylic Acid [4-(4-propionyl-piperazin-1-yl)-phenyl]-amide]	–	demonstrate activity	–
CCC(=O)N1CCN(c2ccc(NC(=O)c3cc(=O)c4cc(F)cc(N5CCN(C)CC5)c4o3)cc2)CC1 [Example 72, 6-Fluoro-8-(4-methyl-piperazin-1-yl)-4-oxo-4H-chromene-2-carboxylic acid [4-(4-propionyl-piperazin-1-yl)-phenyl]-amide]	–	demonstrate activity	–
COc1ccc(NC(=O)c2ccc(-c3ccncc3)c(C)c2)cc1N1CCN(C)CC1 [[^3H]-GR125743]	–	–	46 ± 4 pM

Further lines, with some results ahead:

melting point	Compound	activity in the learned helplessness assay for antidepressant/antianxiety activity (Hartley guinea pigs)	Kd [1]
215 to 216 °C	CN1CCN(c2cccc3c2OC(C(=O)Nc2ccc(N4CCOCC4)cc2)CC3)CC1 (racemic) [Example 75, racemic-8-(4-Methyl-piperazin-1-yl)-chroman-2-carboxylic Acid (4-morpholin-4-yl-phenyl)-amide]	–	–
216 °C (dec.)	CN1CCN(c2cccc3c2OC(C(=O)Nc2ccc(N4CCOCC4)cc2)CC3=O)CC1 (single isomer, unassigned) [Example 79, 8-(4-Methyl-piperazin-1-yl)-4-oxo-chroman-2-carboxylic acid (4-morpholin-4-yl-phenyl)-amide (Faster Running Isomer)]	–	–
206 to 207 °C	CN1CCN(c2cccc3c2OC(C(=O)Nc2ccc(N4CCOCC4)cc2)CC3)CC1 (single isomer, unassigned; (+)) [Example 76, (+)-8-(4-Methyl-piperazin-1-yl)-chroman-2-carboxylic Acid (4-morpholin-4-yl-phenyl)-amide]	–	–
205.5 to 207 °C	CN1CCN(c2cccc3c2OC(C(=O)Nc2ccc(N4CCOCC4)cc2)CC3)CC1 (single isomer, unassigned; (-)) [Example 77, (−)-8-(4-Methyl-piperazin-1-yl)-chroman-2-carboxylic acid (4-morpholin-4-yl-phenyl)-amide]	–	–
248.4 to 249.6 °C	CN1CCN(c2cccc3c(=O)cc(C(=O)Nc4ccc(N5CCOCC5)cc4O)oc23)CC1 [Example 22, 8-(4-Methyl-piperazin-1-yl)-4-oxo-4H-chromene-2-carboxylic Acid (2-hydroxy-4-morpholin-4-yl-phenyl)-amide]	–	–
234 to 236 °C	COc1cc(N2CCN(C)CC2)c2oc(C(=O)Nc3ccc(N4CCOCC4)cc3)cc(=O)c2c1 [Example 31, 6-Methoxy-8-(4-methyl-piperazin-1-yl)-4-oxo-4H-chromene-2-carboxylic acid (4-morpholin-4-yl-phenyl)-amide]	demonstrate activity	–
195 to 197 °C	COc1cc(N2CCN(C)CC2)c2oc(C(=O)Nc3ccc(N4CCN(C(=O)CCO)CC4)cc3)cc(=O)c2c1 [Example 68, 6-Methoxy-8-(4-methyl-piperazin-1-yl)-4-oxo-4H-chromene-2-carboxylic acid {4-[4-(3-hydroxy-propanoyl)-piperazin-1-yl]-phenyl}-amide]	–	–
233 to 234 °C	CCS(=O)(=O)N1CCN(c2ccc(NC(=O)c3cc(=O)c4cc(F)cc(N5CCN(C)CC5)c4o3)cc2)CC1 [Example 71, 6-Fluoro-8-(4-methyl-piperazin-1-yl)-4-oxo-4H-chromene-2-carboxylic Acid [4-(4-ethane sulfonyl-piperazin-1-yl)-phenyl]-amide]	demonstrate activity	–
195 to 199 °C	CN1CCN(c2cc(F)cc3c(=O)cc(C(=O)Nc4ccc(N5CCN(C(=O)CCO)CC5)cc4)oc23)CC1 [Example 73, 6-Fluoro-8-(4-methyl-piperazin-1-yl)-4-oxo-4H-chromene-2-carboxylic acid {4-[4-(3-hydroxy-propanoyl)-piperazin-1-yl]-phenyl}-amide]	–	–
236 to 238 °C	CCNC(=O)N1CCN(c2ccc(NC(=O)c3cc(=O)c4cc(F)cc(N5CCN(C)CC5)c4o3)cc2)CC1 [Example 81, 4-[4-({1-[6-Fluoro-8-(4-methyl-piperazin-1-yl)-4-oxo-4H-chromen-2-yl]-methanoyl}-amino)-phenyl]-piperazine-1-carboxylic Acid Ethylamide]	–	–
